Reference: ChEMBL document CHEMBL3885861, “Open TG-GATES”

Organism: Rattus norvegicus
Experiment: Open TG-GATES - Regimen: Daily Repeat
Type: toxicity, organism-based, Sprague-Dawley
Set-up: regimen Daily Repeat, gender Male, age 6 weeks
Conditions: in vivo, po, route gavage; for APTT / Bas / Eos / Fbg / Hb / Ht / Lym / MCH / MCHC / MCV / Mono / Neu / PT / Plat / RBC / Ret / WBC: tissue Blood; for KIDNEY_L / KIDNEY_R / KIDNEY_TOTAL: tissue Kidney; for LIVER: tissue Liver; for A/G / ALP / ALT / AST / BUN / CRE / Ca / Cl / DBIL / GLC / IP / K / LDH / Na / PL / RALB / TBIL / TC / TG / TP / gamma-GTP: tissue Plasma
[1] = 300 mg/kg, 72 h, dose level Middle, time 3 day
[2] = 300 mg/kg, […], dose level Middle, time 7 day
[3] = 300 mg/kg, […], dose level Middle, time 14 day
[4] = 300 mg/kg, […], dose level Middle, time 28 day
[5] = 1000 mg/kg, 72 h, dose level High, time 3 day
[6] = 1000 mg/kg, […], dose level High, time 7 day
[7] = 1000 mg/kg, […], dose level High, time 14 day
[8] = 1000 mg/kg, […], dose level High, time 28 day

## COc1ccc(Cl)cc1C(=O)NCCc1ccc(S(=O)(=O)NC(=O)NC2CCCCC2)cc1 [GLYBURIDE]
[1]
  TERMINAL_BW: 227.7 g
  APTT: 19.4 s
  Bas: 0%
  Eos: 1%
  Fbg: 222.4 mg/dL
  Hb: 13.3 g/dL
  Ht: 39.4%
  Lym: 79.6%
  MCH: 21.3 pg
  MCHC: 33.7%
  MCV: 63.2 fL
  Mono: 2.8%
  Neu: 16.4%
  PT: 12.4 s
  Plat: 120.5 x10_4/uL
  RBC: 624 x10_4/ul
  Ret: 5.4%
  WBC: 97.9 x10_2/uL
  KIDNEY_L: 1 g
  KIDNEY_R: 1 g
  KIDNEY_TOTAL: 2.1 g
  LIVER: 10.5 g
  A/G: 1.5
  ALP: 912.2 IU/L
  ALT: 40.4 IU/L
  AST: 65.4 IU/L
  BUN: 14.2 mg/dL
  CRE: 0.4 mg/dL
  Ca: 10.7 mg/dL
  Cl: 103 meq/L
  DBIL: 0.088 mg/dL
  GLC: 194.6 mg/dL
  IP: 7.1 mg/dL
  K: 3.8 meq/L
  LDH: 190.4 IU/L
  Na: 140.6 meq/L
  PL: 135.6 mg/dL
  RALB: 3.3 g/dL
  TBIL: 0.1 mg/dL
  TC: 72 mg/dL
  TG: 71.4 mg/dL
  TP: 5.4 g/dL
  gamma-GTP: 0.6 IU/L
[2]
  TERMINAL_BW: 262.8 g
  APTT: 20.6 s
  Bas: 0%
  Eos: 1%
  Fbg: 220.6 mg/dL
  Hb: 13.6 g/dL
  Ht: 40%
  Lym: 78.4%
  MCH: 20.6 pg
  MCHC: 34%
  MCV: 60.5 fL
  Mono: 2.4%
  Neu: 17.8%
  PT: 12.5 s
  Plat: 128.7 x10_4/uL
  RBC: 661.2 x10_4/ul
  Ret: 5.2%
  WBC: 99.5 x10_2/uL
  KIDNEY_L: 1.1 g
  KIDNEY_R: 1.1 g
  KIDNEY_TOTAL: 2.2 g
  LIVER: 12.1 g
  A/G: 1.5
  ALP: 861.6 IU/L
  ALT: 33.4 IU/L
  AST: 59.2 IU/L
  BUN: 14.6 mg/dL
  CRE: 0.4 mg/dL
  Ca: 10.8 mg/dL
  Cl: 102.4 meq/L
  DBIL: 0.084 mg/dL
  GLC: 195.6 mg/dL
  IP: 6.8 mg/dL
  K: 3.8 meq/L
  LDH: 163.8 IU/L
  Na: 140.6 meq/L
  PL: 140.6 mg/dL
  RALB: 3.3 g/dL
  TBIL: 0.1 mg/dL
  TC: 67.8 mg/dL
  TG: 87.6 mg/dL
  TP: 5.6 g/dL
  gamma-GTP: 1.2 IU/L
[3]
  TERMINAL_BW: 322.5 g
  APTT: 21.4 s
  Bas: 0%
  Eos: 1%
  Fbg: 226.6 mg/dL
  Hb: 14.1 g/dL
  Ht: 41.1%
  Lym: 81.2%
  MCH: 20.5 pg
  MCHC: 34.4%
  MCV: 59.6 fL
  Mono: 3.2%
  Neu: 13.8%
  PT: 12.3 s
  Plat: 124.7 x10_4/uL
  RBC: 689.4 x10_4/ul
  Ret: 4.5%
  WBC: 105.4 x10_2/uL
  KIDNEY_L: 1.2 g
  KIDNEY_R: 1.2 g
  KIDNEY_TOTAL: 2.5 g
  LIVER: 14 g
  A/G: 1.4
  ALP: 818.6 IU/L
  ALT: 40 IU/L
  AST: 64.2 IU/L
  BUN: 15.8 mg/dL
  CRE: 0.5 mg/dL
  Ca: 10.7 mg/dL
  Cl: 102.4 meq/L
  DBIL: 0.1 mg/dL
  GLC: 178 mg/dL
  IP: 6.8 mg/dL
  K: 4 meq/L
  LDH: 162.8 IU/L
  Na: 140.4 meq/L
  PL: 166.8 mg/dL
  RALB: 3.5 g/dL
  TBIL: 0.2 mg/dL
  TC: 80.8 mg/dL
  TG: 125 mg/dL
  TP: 6 g/dL
  gamma-GTP: 1.6 IU/L
[4]
  TERMINAL_BW: 400.8 g
  APTT: 21.1 s
  Bas: 0%
  Eos: 1%
  Fbg: 217.4 mg/dL
  Hb: 15 g/dL
  Ht: 42.8%
  Lym: 81.6%
  MCH: 19.6 pg
  MCHC: 34.9%
  MCV: 56.1 fL
  Mono: 2.2%
  Neu: 14.8%
  PT: 12.5 s
  Plat: 110.1 x10_4/uL
  RBC: 762.8 x10_4/ul
  Ret: 2.6%
  WBC: 109.6 x10_2/uL
  KIDNEY_L: 1.4 g
  KIDNEY_R: 1.3 g
  KIDNEY_TOTAL: 2.7 g
  LIVER: 16.8 g
  A/G: 1.3
  ALP: 681.2 IU/L
  ALT: 35.4 IU/L
  AST: 62.2 IU/L
  BUN: 15.4 mg/dL
  CRE: 0.5 mg/dL
  Ca: 10.5 mg/dL
  Cl: 104.4 meq/L
  DBIL: 0.1 mg/dL
  GLC: 213 mg/dL
  IP: 6.2 mg/dL
  K: 3.7 meq/L
  LDH: 150.8 IU/L
  Na: 142 meq/L
  PL: 140.6 mg/dL
  RALB: 3.4 g/dL
  TBIL: 0.2 mg/dL
  TC: 67.2 mg/dL
  TG: 114.4 mg/dL
  TP: 5.9 g/dL
  gamma-GTP: 0.6 IU/L
[5]
  TERMINAL_BW: 228 g
  APTT: 20.6 s
  Bas: 0%
  Eos: 1.2%
  Fbg: 221.4 mg/dL
  Hb: 13.5 g/dL
  Ht: 40.2%
  Lym: 79.2%
  MCH: 21.1 pg
  MCHC: 33.6%
  MCV: 62.9 fL
  Mono: 2.4%
  Neu: 16.4%
  PT: 12.3 s
  Plat: 120.1 x10_4/uL
  RBC: 640 x10_4/ul
  Ret: 5.2%
  WBC: 112.9 x10_2/uL
  KIDNEY_L: 1 g
  KIDNEY_R: 1 g
  KIDNEY_TOTAL: 2 g
  LIVER: 11.1 g
  A/G: 1.6
  ALP: 893.4 IU/L
  ALT: 36.4 IU/L
  AST: 61.4 IU/L
  BUN: 15.2 mg/dL
  CRE: 0.4 mg/dL
  Ca: 10.8 mg/dL
  Cl: 102.8 meq/L
  DBIL: 0.094 mg/dL
  GLC: 200.2 mg/dL
  IP: 6.7 mg/dL
  K: 4 meq/L
  LDH: 179.2 IU/L
  Na: 140.6 meq/L
  PL: 150.2 mg/dL
  RALB: 3.4 g/dL
  TBIL: 0.1 mg/dL
  TC: 74.4 mg/dL
  TG: 93.4 mg/dL
  TP: 5.5 g/dL
  gamma-GTP: 1 IU/L
[6]
  TERMINAL_BW: 260.9 g
  APTT: 19.8 s
  Bas: 0.2%
  Eos: 1%
  Fbg: 220 mg/dL
  Hb: 13.6 g/dL
  Ht: 40%
  Lym: 81%
  MCH: 20.7 pg
  MCHC: 34%
  MCV: 60.8 fL
  Mono: 2.2%
  Neu: 15.2%
  PT: 12.4 s
  Plat: 129 x10_4/uL
  RBC: 658.4 x10_4/ul
  Ret: 5.2%
  WBC: 109.6 x10_2/uL
  KIDNEY_L: 1.1 g
  KIDNEY_R: 1.1 g
  KIDNEY_TOTAL: 2.2 g
  LIVER: 12.5 g
  A/G: 1.4
  ALP: 962.2 IU/L
  ALT: 35 IU/L
  AST: 61.6 IU/L
  BUN: 16.2 mg/dL
  CRE: 0.4 mg/dL
  Ca: 10.8 mg/dL
  Cl: 102.6 meq/L
  DBIL: 0.1 mg/dL
  GLC: 212 mg/dL
  IP: 6.9 mg/dL
  K: 3.8 meq/L
  LDH: 169.4 IU/L
  Na: 140.8 meq/L
  PL: 151.4 mg/dL
  RALB: 3.3 g/dL
  TBIL: 0.2 mg/dL
  TC: 73 mg/dL
  TG: 123.6 mg/dL
  TP: 5.6 g/dL
  gamma-GTP: 1.4 IU/L
[7]
  TERMINAL_BW: 308.1 g
  APTT: 20.5 s
  Bas: 0%
  Eos: 0.8%
  Fbg: 224.4 mg/dL
  Hb: 14 g/dL
  Ht: 40.6%
  Lym: 81%
  MCH: 20.7 pg
  MCHC: 34.6%
  MCV: 59.9 fL
  Mono: 2.4%
  Neu: 15.2%
  PT: 12.2 s
  Plat: 116.7 x10_4/uL
  RBC: 678.6 x10_4/ul
  Ret: 4.5%
  WBC: 129.3 x10_2/uL
  KIDNEY_L: 1.2 g
  KIDNEY_R: 1.2 g
  KIDNEY_TOTAL: 2.4 g
  LIVER: 13.8 g
  A/G: 1.5
  ALP: 801.6 IU/L
  ALT: 33.4 IU/L
  AST: 56.8 IU/L
  BUN: 14.6 mg/dL
  CRE: 0.5 mg/dL
  Ca: 10.6 mg/dL
  Cl: 102.8 meq/L
  DBIL: 0.1 mg/dL
  GLC: 174.6 mg/dL
  IP: 6.7 mg/dL
  K: 3.7 meq/L
  LDH: 115 IU/L
  Na: 141 meq/L
  PL: 151 mg/dL
  RALB: 3.6 g/dL
  TBIL: 0.2 mg/dL
  TC: 72.4 mg/dL
  TG: 102.2 mg/dL
  TP: 5.9 g/dL
  gamma-GTP: 1.4 IU/L
[8]
  TERMINAL_BW: 392.8 g
  APTT: 20.5 s
  Bas: 0%
  Eos: 1%
  Fbg: 218.2 mg/dL
  Hb: 14.9 g/dL
  Ht: 42.8%
  Lym: 81.4%
  MCH: 19.5 pg
  MCHC: 34.8%
  MCV: 56 fL
  Mono: 2.4%
  Neu: 14.4%
  PT: 12.3 s
  Plat: 99 x10_4/uL
  RBC: 766.2 x10_4/ul
  Ret: 2.7%
  WBC: 123.6 x10_2/uL
  KIDNEY_L: 1.3 g
  KIDNEY_R: 1.4 g
  KIDNEY_TOTAL: 2.7 g
  LIVER: 16 g
  A/G: 1.4
  ALP: 552.4 IU/L
  ALT: 31.6 IU/L
  AST: 55.2 IU/L
  BUN: 16 mg/dL
  CRE: 0.5 mg/dL
  Ca: 10.3 mg/dL
  Cl: 103 meq/L
  DBIL: 0.098 mg/dL
  GLC: 230.2 mg/dL
  IP: 6.5 mg/dL
  K: 4.2 meq/L
  LDH: 131 IU/L
  Na: 141 meq/L
  PL: 153.2 mg/dL
  RALB: 3.5 g/dL
  TBIL: 0.2 mg/dL
  TC: 75.6 mg/dL
  TG: 102 mg/dL
  TP: 6 g/dL
  gamma-GTP: 0.8 IU/L
